From the supplement of paper PMC13380429

Key:
Conditions in all cases: 72 h
[1] = test system: Caco-2; assay: cell viability relative to DMSO; higher = less toxic
[2] = test system: Calu-3; assay: as above
[3] = test system: HepG2; assay: as above
[4] = test system: U2OS; assay: as above
[5] = test system: Vero E6; assay: as above
[6] = test system: Caco-2; assay: relative viability EC50 (midpoint between 100% and the lowest measured viability); higher = less toxic
[7] = test system: Calu-3; assay: as above
[8] = test system: HepG2; assay: as above
[9] = test system: U2OS; assay: as above
[10] = test system: Vero E6; assay: as above
[11] = test system: Caco-2; assay: drug sensitivity score (DSS) for viability; higher = more toxic; extreme values may be limits of the assay
[12] = test system: Calu-3; assay: as above
[13] = test system: HepG2; assay: as above
[14] = test system: U2OS; assay: as above
[15] = test system: Vero E6; assay: as above

Structure (SMILES)	cell viability ([1]; 1 nM) [%]	cell viability ([1]; 10 nM) [%]	cell viability ([1]; 100 nM) [%]	cell viability ([1]; 1000 nM) [%]	cell viability ([1]; 10000 nM) [%]	cell viability ([2]; 1 nM) [%]	cell viability ([2]; 10 nM) [%]	cell viability ([2]; 100 nM) [%]	cell viability ([2]; 1000 nM) [%]	cell viability ([2]; 10000 nM) [%]	cell viability ([3]; 1 nM) [%]	cell viability ([3]; 10 nM) [%]	cell viability ([3]; 100 nM) [%]	cell viability ([3]; 1000 nM) [%]	cell viability ([3]; 10000 nM) [%]	cell viability ([4]; 1 nM) [%]	cell viability ([4]; 10 nM) [%]	cell viability ([4]; 100 nM) [%]	cell viability ([4]; 1000 nM) [%]	cell viability ([4]; 10000 nM) [%]	cell viability ([5]; 1 nM) [%]	cell viability ([5]; 10 nM) [%]	cell viability ([5]; 100 nM) [%]	cell viability ([5]; 1000 nM) [%]	cell viability ([5]; 10000 nM) [%]	relative viability EC50 [6] [µM]	relative viability EC50 [7] [µM]	relative viability EC50 [8] [µM]	relative viability EC50 [9] [µM]	relative viability EC50 [10] [µM]	drug sensitivity score [11]	drug sensitivity score [12]	drug sensitivity score [13]	drug sensitivity score [14]	drug sensitivity score [15]
O=C(NCCCCN1CCN(c2cccc(Cl)c2Cl)CC1)c1ccc2c(c1)Cc1ccccc1-2 [NGB-2904]	89.4	97.2	97	109	103	94.3	97.9	86.5	108	99.9	107	94.1	99.3	91.2	92.9	93.5	102	95.6	102	100	96.7	91.2	93.6	89.5	98.3	> 10	> 10	> 10	> 10	> 10	0	0	0	0	0
CCN(c1nc(N)c(C(=O)NC(=N)N)nc1Cl)C(C)C [EIPA]	90.8	104	101	100	105	92.4	104	91.9	102	84.9	100	97.4	101	85.6	86.5	99.7	100	99.8	102	93.8	103	94.2	96.2	94.2	104	> 10	> 10	> 10	> 10	> 10	0	0.2	1.2	0	0
CCCN[C@H]1CCc2nc(N)sc2C1 [pramipexole]	97.3	103	99.7	96.8	107	91.7	111	107	102	110	88.2	90.8	109	99.3	108	96.2	98.2	95.5	98.6	103	104	104	105	99	101	> 10	> 10	> 10	> 10	> 10	0	0	0	0	0
N[C@@H](C(=O)O)[C@@H](OCc1ccccc1)C(=O)O.N[C@H](C(=O)O)[C@H](OCc1ccccc1)C(=O)O [TBOA-(DL)]	96.3	94.6	89.8	90.2	92.4	96.7	87.8	92.4	98.4	109	100	94.1	91.5	96.6	82.5	99.5	101	97.2	95	99.2	104	100	101	96.6	98.8	> 10	> 10	> 10	> 10	> 10	0	0	0.3	0	0
CCCCOc1ccc(C(=O)Nc2ccc(F)cc2F)cc1	105	106	104	92.6	96.5	107	97.1	109	99.2	95.5	100	98.2	101	90.7	97.6	98.1	98.2	101	96.6	99.5	99.2	102	98.4	99.7	101	> 10	> 10	> 10	> 10	> 10	0	0	0	0	0
CNCC(O)c1ccc(OC(=O)C(C)(C)C)c(OC(=O)C(C)(C)C)c1 (stereo not given) [dipivefrine]	104	94	102	90.4	85	97.9	102	106	96.3	109	97.5	94.1	98.2	97.7	84.3	99.4	95.1	97.3	96.2	97.1	100	100	93.3	98.3	97.4	> 10	> 10	> 10	> 10	> 10	0.9	0	0.5	0	0
COC1CCN(c2cccc(-c3cc(NC(C)=O)nc(-n4nc(C)cc4C)n3)n2)CC1 [TC-G-1004]	106	89.3	111	96.9	20.7	103	94.9	103	91.8	93.1	84.7	101	75.3	90.9	44	105	97.6	104	102	95	103	107	101	104	86.7	2.88	> 10	1.12	> 10	> 10	4.8	0	5.5	0	0.1
